Data: US4904668A, “Benzoyl urea compound” (Ishihara Sangyo Kaisha Ltd., priority 1986, dated 1990)

Experiments:
[1] = average particle size of pulverized benzoyl urea compound by light scattering (Autosizer Model 700); type: physicochemical; settings: for average particle size in the liquid formulation: 3000 rpm 45 minutes, autoclaved
Experimental: Compound No. 3, No. 5 or No. 6 (4 w/v%) as the benzoyl urea compound and polyoxyethylene hardened caster oil 60 (HCO-60, manufactured by Nikko Chemical K.K., 10 w/v%) as a dispersant were suspended in water, and after an addition of glass beads (from 1 to 1.4 mm in diameter) in an amount of the same volume, subjected to rotary pulverization by Dyno-mill for 20 minutes.
(§1) The average particle size was measured in such a manner that the benzoyl urea compound was diluted to a concentration of 20 μg/ml and the average particle size was measured by a light scattering method (Autosizer, Model 700, manufactured by Maruburn Company) (the same applies hereinafter).
Compound No. 3 (4 w/v%) and the following dispersant (10 w/v%) were suspended in water, and after an addition of glass beads (from 1 to 1.4 mm in diameter) in an amount of the same volume, subjected to rotary pulverization by Dyno-mill for 45 minutes. As the dispersant, polyoxyethylene hardened caster oil 60 (HCO-60, manufactured by Nikko Chemical K.K.), polyoxyethylene (160) polyoxypropylene (30) glycol (F68, manufactured by Asahi Denka Kogyo K.K.), a decaglycerol fatty acid ester (Decagly.ester, Nikko Chemical K.K.) or polysolbate 80 (Tween 80, manufactured by Nakarai Kagaku K.K.) was employed.
Compound No. 3 (from 10 to 40 w/v%), HCO-60 (5 w/v%) as a dispersant and glass beads (from 1 to 1.5 mm in diameter) were subjected to rotary pulverization by Dyno-mill for pulverization time of 30 minutes. Then, the average particle size of the benzoyl urea compound was measured.
Compound No. 3 (20 w/v%), HCO-60 (from 2.5 to 10 w/v%) as the dispersant and glass beads (from 1 to 1.5 mm in diameter) were subjected to rotary pulverization by Dyno-mill for a pulverization time of 30 minutes. Then, the average particle size of the benzoyl urea compound was measured.
Compound No. 3 (40 w/v%), HCO-60 (5 w/v%) as the dispersant and glass beads (three types having a diameter of from 0.25 to 0.5, from 0.5 to 0.75 and from 1 to 1.5 mm, respectively) were subjected to rotary pulverization by Dyno-mill for a pulverization time of 30 minutes. Then, the average particle size of the benzoyl urea compound was measured.
Compound No. 3 (40 w/v%), HCO-60 (5 w/v%) as the dispersant and glass beads (from 0.25 to 0.5 mm in diameter), were subjected to rotary pulverization by Dyno-mill for a pulverization time of from 10 to 60 minutes. Then, the average particle size of the benzoyl urea compound was measured.
(§2) Compound No. 3 (20 g) was suspended in 50 ml of a 5 w/v% HCO-60 aqueous solution, and the suspension was wet pulverized (3000 rpm for 45 minutes) by Dyno-mill by using 50 g of glass beads (from 0.25 to 0.5 mm in diameter). After the completion of the pulverization, glass beads were removed by sieving, to obtain a wet pulverized formulation of Compound No. 3.
(§3) The wet pulverized formulation thus obtained was sterilized in an autoclave to obtain a liquid formulation of a final form. The average particle size of Compound No. 3 in this liquid formulation was 0.68 μm. Instead of the sterilization in an autoclave, it is possible to employ filtration to remove bacteria. If necessary, a sweetening agent, a perfume, etc. may be added.
as §2, with “(15” for “(20”, “decaglycerol monolaurate (Decagline 1 L, manufactured by Nikko Chemical K.K.)” for “HCO-60”
as §3, with “0.75” for “0.68”, “added. […]” for “added.”

[2] = stability of particles in the liquid composition on storage at room temperature; type: physicochemical; settings: compound 40 w/v%, HCO-60 10 w/v%
Experimental: as §1
The stability of particles in the liquid composition of the benzoyl urea compound was investigated.
Namely, a wet pulverization formulation comprising compound No. 3 (40 w/v%) and HCO-60 (10 w/v%) was stored at room temperature, whereby the stability of the particles was investigated.

[3] = oral administration of wet pulverized formulations to rats, AUC of concentration in blood; type: in vivo, Wister male rats; settings: rat, plasma, 50 mg/kg, 50 mg/5 ml/kg, compound 40 w/v%, HCO-60 10 w/v%
Experimental: Each of four wet pulverized formulations having different particle sizes [composition: Compound No. 3 (40 w/v%) and HCO-60 (10 w/v%)] was forcibly orally administered by an oral sonde to a group of 5 Wister male rats (body weight: 200 g) starved for 18 hours (dose: 50 mg/5 ml/kg). Then, blood (0.3 ml) was periodically sampled with heparin from the jugular vein. The blood thus obtained was subjected to separation of the plasma and removal of proteins by using acetonitrile, and then Compound No. 3 was quantitatively analyzed by a high speed liquid chromatography using a reversed phase column (Nova Pak C18, 5μ, 3.9 mm in diameter×150 mm, Nihon Waters), and the curve of the concentration in blood was prepared. From the curve of the concentration in blood, the area below the curve was obtained by using a trapezoid formula and presented as AUC (Area Under the Curve).

[4] = compound 4 w/v%, HCO-60 10 w/v%, glass beads 1 to 1.4 mm, Dyno-mill 20 minutes

Structure (SMILES): O=C(NC(=O)c1ccccc1[N+](=O)[O-])Nc1ccc(Oc2ncc(Br)cn2)c(Cl)c1 [Compound No. 3]
- average particle size in the liquid formulation ([1]; Example 1: 20 g in 50 ml 5 w/v% HCO-60, beads 0.25 to 0.5 mm): 0.68 μm
- average particle size in the liquid formulation ([1]; Example 3: 15 g in 50 ml 5 w/v% decaglycerol monolaurate, beads 0.25 to 0.5 mm): 0.75 μm
- Particle size (average) [1, 4]: 0.43 μm
- Particle size (average) ([1]; diameter of beads 0.25-0.5 mm, compound 40 w/v%, HCO-60 5 w/v%, 30 minutes): 0.30 μm
- Particle size (average) ([1]; diameter of beads 0.5-0.75 mm, compound 40 w/v%, HCO-60 5 w/v%, 30 minutes): 0.33 μm
- Particle size (average) ([1]; diameter of beads 1-1.5 mm, compound 40 w/v%, HCO-60 5 w/v%, 30 minutes (Table 5)): 0.46 μm
- Particle size (average) ([1]; dispersant Decagly.ester 10 w/v%, compound 4 w/v%, beads 1 to 1.4 mm, 45 minutes): 0.6 μm
- Particle size (average) ([1]; dispersant F68 10 w/v%, compound 4 w/v%, beads 1 to 1.4 mm, 45 minutes): 0.9 μm
- Particle size (average) ([1]; dispersant HCO-60 2.5 w/v%, compound 20 w/v%, beads 1 to 1.5 mm, 30 minutes): 0.54 μm
- Particle size (average) ([1]; dispersant HCO-60 5 w/v%, compound 20 w/v%, beads 1 to 1.5 mm, 30 minutes (Table 4)): 0.50 μm
- Particle size (average) ([1]; dispersant HCO-60 10 w/v%, compound 4 w/v%, beads 1 to 1.4 mm, 45 minutes): 0.9 μm
- Particle size (average) ([1]; dispersant HCO-60 10 w/v%, compound 20 w/v%, beads 1 to 1.5 mm, 30 minutes): 0.45 μm
- Particle size (average) ([1]; dispersant Tween 80 10 w/v%, compound 4 w/v%, beads 1 to 1.4 mm, 45 minutes): 0.6 μm
- Particle size (average) ([1]; pulverization time 10 minutes, compound 40 w/v%, HCO-60 5 w/v%, beads 0.25 to 0.5 mm): 0.38 μm
- Particle size (average) ([1]; pulverization time 20 minutes, compound 40 w/v%, HCO-60 5 w/v%, beads 0.25 to 0.5 mm): 0.33 μm
- Particle size (average) ([1]; pulverization time 30 minutes, compound 40 w/v%, HCO-60 5 w/v%, beads 0.25 to 0.5 mm (Table 6)): 0.29 μm
- Particle size (average) ([1]; pulverization time 40 minutes, compound 40 w/v%, HCO-60 5 w/v%, beads 0.25 to 0.5 mm): 0.27 μm
- Particle size (average) ([1]; pulverization time 50 minutes, compound 40 w/v%, HCO-60 5 w/v%, beads 0.25 to 0.5 mm): 0.26 μm
- Particle size (average) ([1]; pulverization time 60 minutes, compound 40 w/v%, HCO-60 5 w/v%, beads 0.25 to 0.5 mm): 0.26 μm
- Particle size (average) ([1]; sample 10 w/v%, HCO-60 5 w/v%, beads 1 to 1.5 mm, 30 minutes): 0.56 μm
- Particle size (average) ([1]; sample 20 w/v%, HCO-60 5 w/v%, beads 1 to 1.5 mm, 30 minutes): 0.50 μm
- Particle size (average) ([1]; sample 40 w/v%, HCO-60 5 w/v%, beads 1 to 1.5 mm, 30 minutes): 0.46 μm
- Particle size on storage ([2]; 0 months): 0.7 μm
- Particle size on storage ([2]; 1 month): 0.8 μm
- Particle size on storage ([2]; 3 months): 1.3 μm
- AUC(0-t) at 24 h ([3]; particle size 0.31 μm): 11600 ± 2300 ng·h/mL
- AUC(0-t) at 24 h ([3]; particle size 0.66 μm): 10000 ± 1600 ng·h/mL
- AUC(0-t) at 24 h ([3]; particle size 1.5 μm): 8100 ± 1200 ng·h/mL
- AUC(0-t) at 24 h ([3]; particle size 2.5 μm): 6900 ± 1400 ng·h/mL

Structure (SMILES): O=C(NC(=O)c1ccccc1[N+](=O)[O-])Nc1ccc(Oc2ncc(Cl)cn2)c(C(F)(F)F)c1 [Compound No. 5]
- Particle size (average) [1, 4]: 1.13 μm

Structure (SMILES): O=C(NC(=O)c1ccccc1[N+](=O)[O-])Nc1ccc(Oc2ncc(Cl)cn2)c([N+](=O)[O-])c1 [Compound No. 6]
- Particle size (average) [1, 4]: 0.72 μm
